# Where “and” joins values, the source holds several entries; their conditions need not be identical. Equal values may be shown once. Entries after “also recorded” stand apart in the source; their conditions may differ. Marks after values point to notes of the source that are not given here.
# How the values were obtained:
# [1] = tested on: transplantation tumor of human multiple myeloma MM.1S; assay: Transplantation tumor model of human multiple myeloma cells MM.1S in CB17-SCID mouse, dose 0.00831 mmol/kg (Activity Experiment Example 2); type: in vivo; details: for tumor weight (g): X ± SD, tumor dissected on day 19; for tumor weight (g) / tumor inhibition rate (%): five doses; for Relative tumor proliferation rate T/C(%): 0.00831 mmol/kg oral gavage twice a week; for tumor inhibition rate (%): from tumor weight
# Protocol: The model used in this experiment was the transplantation tumor model of human multiple myeloma cells line MM.1 S in CB17-SCID mouse (purchased from Beijing Weitong Lihua Experimental Animal Technology Co., Ltd.). Cryopreserved MM.1S cells were cultured in vitro by conventionally way after resuscitation. The cells were collected in logarithmic growth phase and diluted with serum-free culture medium or PBS to form a tumor cell suspension with a concentration of 5×10^7/ml. The tumor cell suspensions prepared above were taken with a 1 ml syringe and injected subcutaneously into the left armpit backrest side of the mouse, and 0.2 ml was injected into each inoculation site. About 1 to 2 weeks after the cultured tumor cells were injected into CB17-SCID mouse, the tumors were touched under the armpit. When the tumor volume was more than 100 mm^3, the tumor volume was measured and calculated, and the mice were randomly divided into groups according to the tumor volume. The administration doses of different test samples were equivalent doses on a molar basis with a specific dose of 0.00831 mmol/kg. Administration mode and frequency: The test samples were administered by oral gavage with a volume of 10 ml/kg. The model group was given equal volume of solvent. The test samples were administered twice a week for five times (with administration dose of 0.00831 mmol/kg, i.e., the dose of MLN9708 being 4.30 mg/kg, the dose of the compound 6a being 4.67 mg/kg, and the dose of the compound 6b being 4.53 mg/kg) for a duration of 19 days. The administration was conducted on the 1st, 4th, 8th, 11th and 15th day, and the experiment was finished on the 19th day. The mental state, activity, eating and other general conditions of mice were observed every day, and the weight was measured twice a week. The short diameter (a) and long diameter (b) of each mouse tumor were measured with vernier caliper twice a week, and the tumor volume was calculated according to formula (a^2×b)/2. The relative tumor volume (RTV) was calculated according to the measured tumor volume, RTV=Vt/V0. Wherein, V0 was the tumor volume when random grouping (i.e. d0) and Vt was the tumor volume at each measurement (i.e. dn). According to the following formula, evaluation index of anti-tumor activity, the relative tumor proliferation rate T/C (%), was calculated: Note: TRTV is RTV of treatment group, and CRTV is RTV of model control group. Efficacy evaluation standard is T/C %≤40%, and after statistics procession, p<0.05 is considered significant. On the 19th day, after the tumor was weighted and measured, the mice in each group were killed, and the tumor was dissected and weighed. According to the tumor weight, the tumor inhibition rate (TGI) was calculated, TGI=((average tumor weight of model group−average tumor weight of administration group)/average tumor weight of model group)×100%.
# [2] = tested on: transplantation tumor of human multiple myeloma MM.1S; assay: Transplantation tumor model of human multiple myeloma cells MM.1S in CB17-SCID mouse, low dose 0.00554 mmol/kg (Activity Experiment Example 4); type: in vivo; details: for inhibition of tumor growth (in words) / inhibitory effect on tumor growth compared with other test samples / inhibitory effect sequence on transplantation tumor growth from strong to weak / area under the curve of tumor volume vs. time curve, ascending sequence / tumor weight (g) / tumor inhibition rate (%) / onset time / effective time of controlling tumor growth (in words): 0.00554 mmol/kg oral gavage; for area under the curve of tumor volume vs. time curve, ascending sequence: FIG. 2; for tumor weight (g): X ± SD, tumor dissected at end of experiment; for tumor weight (g) / tumor inhibition rate (%): five doses; for Relative tumor proliferation rate T/C(%): 0.00554 mmol/kg oral gavage twice a week; for tumor inhibition rate (%): from tumor weight at end of experiment
# Protocol: The model used in this experiment was the transplantation tumor model of human multiple myeloma cells line MM.1S in CB17-SCID mouse. Cryopreserved MM.1S cells were cultured in vitro conventionally after resuscitation. The cells were collected in logarithmic growth phase and diluted with serum-free culture medium or PBS to form a tumor cell suspension with a concentration of 5×10^7/ml. The tumor cell suspensions prepared above were taken with a 1 ml syringe and injected subcutaneously into the left armpit backrest side of the mouse, and 0.2 ml was injected into each inoculation site. About 1 to 2 weeks after the cultured tumor cells were injected into the CB17-SCID mouse, the tumors were touched under the armpit. When the tumor volume was more than 100 mm^3, the tumor volume was measured and calculated, and the mice were randomly divided into groups according to the tumor volume. The administration doses of different test samples were equivalent doses on a molar basis with a specific dose of 0.00554 mmol/kg. Administration mode and frequency: the test samples were administered by oral gavage with a volume of 10 ml/kg. The model group was given equal volume of solvent. The test samples were administered twice a week for five times with an administration dose of 0.00554 mmol/kg, i.e., the dose of MLN9708 being 2.86 mg/kg, the dose of the compound 6q being 2.77 mg/kg, the dose of the compound 6f being 2.80 mg/kg, and the dose of the compound 6b being 3.02 mg/kg, for a duration of 17 days. The administration was conducted on the 1st, 5th, 8th, 12th and 15th day, and the experiment was finished on the 17th day. The mental state, activity, eating and other general conditions of mice were observed every day, and the weight was measured twice a week. The short diameter (a) and long diameter (b) of each mouse tumor were measured with a vernier caliper twice a week, and the tumor volume was calculated according to formula (a^2×b)/2. The relative tumor volume (RTV) was calculated according to the measured tumor volume, RTV=Vt/V0. Wherein, V0 was the tumor volume when random grouping (i.e. d0) and Vt was the tumor volume at each measurement (i.e. […]). According to the following formula, evaluation index of anti-tumor activity relative to the relative tumor proliferation rate T/C (%) was calculated: Note: TRTV is RTV of treatment group, and CRTV is RTV of model control group. According to “Technical Guidelines for Non-clinical Research of Cytotoxic Antitumor Drugs” issued by State Food and Drug Administration in China, the evaluation standard is T/C %≤40%, and after statistics procession, p<0.05 is considered significant. On the 19th day, after the tumor was weighted and measured, the mice in each group were killed, and the tumor was dissected and weighed. According to the tumor weight, the tumor inhibition rate (TGI) was calculated, TGI=((average tumor weight of model group−average tumor weight of administration group)/average tumor weight of model group)×100%.
# [3] = day 19, 0.00831 mmol/kg oral gavage
SMILES,tumor weight (g) ([1]; 0.00831 mmol/kg oral gavage),Relative tumor proliferation rate T/C(%) ([1]; day 4),Relative tumor proliferation rate T/C(%) ([1]; day 8),Relative tumor proliferation rate T/C(%) ([1]; day 11),Relative tumor proliferation rate T/C(%) ([1]; day 15),Relative tumor proliferation rate T/C(%) ([1]; day 19),"tumor inhibition rate (%) [1, 3] [%]",inhibition of tumor growth (in words) [2],inhibitory effect on tumor growth compared with other test samples [2],inhibitory effect sequence on transplantation tumor growth from strong to weak [2] [b>6f>6q>MLN9708],"area under the curve of tumor volume vs. time curve, ascending sequence [2]",tumor weight (g) [2],Relative tumor proliferation rate T/C(%) ([2]; day 8),Relative tumor proliferation rate T/C(%) ([2]; day 12),Relative tumor proliferation rate T/C(%) ([2]; day 15),Relative tumor proliferation rate T/C(%) ([2]; day 17),tumor inhibition rate (%) [2] [%],onset time / effective time of controlling tumor growth (in words) [2],further results
"CC(C)C[C@H](NC(=O)CNC(=O)c1cc(Br)ccc1Cl)B1OC(=O)C(CC(=O)O)(CC(=O)O)O1 [Compound 6a, (R)-2,2′-(2-(1-(2-(2-chloro-5-bromo-benzoylamino)acetylamino)-3-methylbutyl)-5-oxo-1,3,2-dioxaborolan-4,4-diyl)diacetic acid]",2.471 ± 0.598^★★▴▴ g,87.94%,69.95%,88.41^▴ %,94.56^▴ %,80.45%,31.63,–,–,–,–,–,–,–,–,–,–,–,–
"CC(C)C[C@H](NC(=O)CNC(=O)c1cc(Br)ccc1F)B1OC(=O)C(CC(=O)O)(CC(=O)O)O1 [Compound 6b, (R)-2,2′-(2-(1-(2-(2-fluoro-5-bromo-benzoylamino)acetylamino)-3-methylbutyl)-5-oxo-1,3,2-dioxaborolan-4,4-diyl)diacetic acid]",0.063 ± 0.072^★★ g,48.84^▴ %,4.3^▴▴ %,1.75^▴▴ %,1.12^▴▴ %,0.5^▴▴ %,98.26,can significantly inhibit tumor growth,significantly stronger inhibitory effect on tumor growth than MLN9708(p<0.01); also recorded: has the fastest effect on tumor growth and has the strongest inhibitory activity,6,compound 6b<compound 6f<compound 6q,0.360 ± 0.415^★★▴▴ g,5.86^▴▴ %,9.04%,10.59^▴▴ %,9.06^▴▴ %,87.75,–,"inhibition of tumor growth (in words) ([1]; 0.00831 mmol/kg oral gavage): can significantly inhibit tumor growth; inhibitory effect on tumor growth compared with MLN9708 and compound 6a ([1]; 0.00831 mmol/kg oral gavage): significantly stronger inhibitory effect on tumor growth than MLN9708(p<0.01) and the compound 6a(p<0.01); inhibitory effect on tumor growth compared with compound 6c ([1]; same method and procedure, data not shown): significantly stronger inhibitory effect on tumor growth of the transplantation tumor of human multiple myeloma MM.1S in SCID mouse than that of the compound 6c; Relative tumor proliferation rate T/C(%) ([2]; day 5): 18%"
"CC(C)C[C@H](NC(=O)CNC(=O)c1cc(Br)ccc1F)B1OC(=O)C(c2ccccc2)O1 (stereo partly drawn) [Compound 6f, 2-fluoro-5-bromo-N-[2-({(1R)-3-methyl-1-[4-oxo-5-phenyl-1,3,2-dioxaborolan-2-yl]butyl}amino)-2-oxoethyl]benzamide]",–,–,–,–,–,–,–,can also significantly inhibit tumor growth,the inhibitory effect is weaker than that of compound 6b; also recorded: its inhibitory activity is weaker than that the compound of 6b,6,compound 6b<compound 6f<compound 6q,0.741 ± 0.917^★★▴▴ g,43.49^▴▴● %,31.17%,30.15^▴▴ %,22.86^▴▴ %,74.82,longer onset time to control tumor growth than that of the compound 6b,–
"CC(C)C[C@H](NC(=O)CNC(=O)c1cc(Cl)ccc1F)B1OC(=O)C(CC(=O)O)(CC(=O)O)O1 [Compound 6q, (R)-2,2′-(2-(1-(2-(2-fluoro-5-chloro-benzoylamino)acetylamino)-3-methylbutyl)-5-oxo-1,3,2-dioxaborolan-4,4-diyl)diacetic acid]",–,–,–,–,–,–,–,can also significantly inhibit tumor growth,the inhibitory effect is weaker than that of compound 6b,6,compound 6b<compound 6f<compound 6q,0.945 ± 0.603^★★▴▴● g,47.34^▴▴●● %,67.42% and 67.42^▴▴● %,45.35^▴▴ %,29.00% and 29.20^▴▴ %,67.85,the effective time of controlling tumor growth was longer than the 6f group and significantly longer than the 6b group,–

# From patent US12157749B2, “Borate-based drug and use thereof” (Chengdu Origin Biotechnology Limited Company, priority 2018, dated 2024)
